Test results reported in patent EP3017816A2, “DIINDOLYLMETHANE-BASED MEDICINAL AGENT AND USE THEREOF TO TREAT INFLUENZA AND VIRAL RESPIRATORY INFECTIONS” (Kiselev, Vsevolod Ivanovich, priority 2013, dated 2014).
“And” between values parts separate entries of the source, which are not always exact repeats. Equal entries are not always repeated.

Experiments:
[1] = test system: A/Aichi/2/68 (H3N2) influenza virus; assay: Virus titration in lung tissue of infected mice (CAM fragments, hemagglutination reaction); type: in vivo, white mice; settings: 3rd day
[2] = test system: A/Aichi/2/68 (H3N2) influenza virus; assay: Experimental lethal influenza infection in mice: mortality, average life, protection index; type: in vivo, white mice; settings: for Average life / Protection index, % / total mortality (number of dead/infected): reference preparation, dose not given; for total mortality (number of dead/infected): day 15
[3] = Concentration of diindolylmethane in volunteers' plasma after oral administration; type: in vivo; settings: same dosage; range of concentrations approximately 300 ng/ml
Experimental: In all the clinical studies, pharmacokinetics comparison was made between the DIM preparation of the invention on the basis of A-type fish oil with the concentration 1-10% of preparation, the DIM preparation on the basis of Omega 3 and the crystalline DIM in the same dosages. […] The maximum DIM concentration in blood was observed two hours after the administration of preparations and achieved approximately 300 ng/ml.

[4] = test system: A/Aichi/2/68 (H3N2) influenza virus; assay: Surface of chronic postinfluenzal pneumonia foci in lungs of surviving mice; type: in vivo, white mice; settings: for Surface of chronic pneumonia foci (% of total surface of the lung surface): reference preparation, dose not given, survivors day 15
Experimental: The animals that survived to the 15th day after infection were autopsied and their lungs were studied macroscopically. Visual evaluation was carried out of the surface of chronic foci of postinfluenzal pneumonia remaining in the lung tissue of mice after the acute stage of the influenza infection within the entire life of the animal. The surface of the lesion foci was expressed in percentage to the entire lung surface.

SMILES | Infectious titer of the influenza virus (lg EID50) in lungs ([1]; 60 mg/kg orally, virus dosage 1, group average) [lg EID50] | Infectious titer of the influenza virus (lg EID50) in lungs ([1]; 60 mg/kg orally, virus dosage 1, individual animals) | Infectious titer of the influenza virus (lg EID50) in lungs ([1]; 60 mg/kg orally, virus dosage 2, group average) [lg EID50] | Infectious titer of the influenza virus (lg EID50) in lungs ([1]; 60 mg/kg orally, virus dosage 2, individual animals) | survival of infected animals (Fig. 2) ([2]; virus dosage 10 LD50) | detection of DIM in the patients' plasma [3] | Infectious titer of the influenza virus (lg EID50) in lungs ([1]; 50 mg/kg orally, virus dosage 1, group average) [lg EID50] | Infectious titer of the influenza virus (lg EID50) in lungs ([1]; 50 mg/kg orally, virus dosage 1, individual animals) | Infectious titer of the influenza virus (lg EID50) in lungs ([1]; 50 mg/kg orally, virus dosage 2, group average) [lg EID50] | Infectious titer of the influenza virus (lg EID50) in lungs ([1]; 50 mg/kg orally, virus dosage 2, individual animals) | effect on the surface of chronic pneumonia foci [4] | Surface of chronic pneumonia foci (% of total surface of the lung surface) ([4]; viral dosage 1 LD50) [%] | Surface of chronic pneumonia foci (% of total surface of the lung surface) ([4]; viral dosage 10 LD50) [%] | Average life ([2]; virus dosage 1 LD50) [days] | Protection index, % ([2]; virus dosage 1 LD50) [%] | total mortality (number of dead/infected) ([2]; virus dosage 1 LD50) | Average life ([2]; virus dosage 10 LD50) [days] | Protection index, % ([2]; virus dosage 10 LD50) [%] | total mortality (number of dead/infected) ([2]; virus dosage 10 LD50) | protection index ([2]; text summary over both virus dosages)
c1ccc2c(Cc3c[nH]c4ccccc34)c[nH]c2c1 [crystalline DIM, 3,3-diindolylmethane] | 3.8±0.17 | 4.0 lg EID50 (2×) and 3.5 lg EID50 | 4.5±0.29 | 5.0 lg EID50 and 4.0 lg EID50 and 4.5 lg EID50 | had no practical influence on the survival | did not enable one to discover it in this range of concentrations | – | – | – | – | – | – | – | – | – | – | – | – | – | –
CC(N)C12CC3CC(CC(C3)C1)C2 (centres unmarked) [rimantadine] | – | – | – | – | – | – | 2.3±0.17 | 2.0 lg EID50 and 3.0 lg EID50 and 2.5 lg EID50 | 2.7±0.17 | 2.5 lg EID50 (2×) and 3.0 lg EID50 | reduced this index for each infecting dosage | 31±11.8 | 27±6.8 | 14.4 | 80 | 1/10 | 13.9 | 78 | 2/10 | 78-80%
